Reference: PMC5058426 (Journal of porphyrins and phthalocyanines, 2016)

Experiments:
HEp2 cells [1] = assay: Phototoxicity, Cell Titer Blue assay; type: cell-based, human; details: 24 h
HEp2 cells [2] = assay: Time-dependent cellular uptake; type: cell-based, human; details: 10 μM; for cellular accumulation compared with MPIX 3: all time points over 24 h
[3] = Fluorescence quantum yield in DMF; type: physicochemical; details: room temperature, calculated using porphyrin 3 as standard (0.102)
[4] = reference standard value; cited from earlier work
[5] = target: EGFR extracellular domain (Homo sapiens, UniProt P00533); assay: SPR binding to immobilized EGFR; details: SPR sensorgram, 400 to 500 s, 100 μM
Chain of EGFR extracellular domain (P00533 25-645 limits assumed): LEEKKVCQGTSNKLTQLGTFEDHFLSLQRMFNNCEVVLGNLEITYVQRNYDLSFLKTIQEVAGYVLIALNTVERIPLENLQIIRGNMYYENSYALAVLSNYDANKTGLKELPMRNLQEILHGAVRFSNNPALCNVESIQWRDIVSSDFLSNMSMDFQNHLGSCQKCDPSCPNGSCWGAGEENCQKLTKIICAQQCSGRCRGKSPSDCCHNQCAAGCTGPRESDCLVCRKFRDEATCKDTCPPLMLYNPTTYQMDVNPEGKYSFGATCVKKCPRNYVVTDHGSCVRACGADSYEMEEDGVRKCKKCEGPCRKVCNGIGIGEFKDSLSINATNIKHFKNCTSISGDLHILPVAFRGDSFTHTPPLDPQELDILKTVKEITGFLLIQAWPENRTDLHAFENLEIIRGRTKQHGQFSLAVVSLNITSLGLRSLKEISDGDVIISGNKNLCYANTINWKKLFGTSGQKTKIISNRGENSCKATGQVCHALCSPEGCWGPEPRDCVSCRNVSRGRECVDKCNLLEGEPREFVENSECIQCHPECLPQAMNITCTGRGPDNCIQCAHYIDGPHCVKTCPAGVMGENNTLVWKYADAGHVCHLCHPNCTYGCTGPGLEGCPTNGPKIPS

Compound	cellular accumulation compared with MPIX 3 (HEp2 cells [2])	Φf (fluorescence quantum yield) [3]	further results
CCC1=C(C)c2cc3[nH]c(cc4nc(cc5[nH]c(cc1n2)c(C)c5CCC(=O)N[C@@H](CC(C)C)C(=O)N[C@@H](C)C(=O)N[C@@H](CCCNC(=N)N)C(=O)N[C@@H](CC(C)C)C(=O)N[C@@H](CC(C)C)C(=O)N[C@H](C(N)=O)[C@@H](C)O)C(CCC(=O)N[C@@H](CC(C)C)C(=O)N[C@@H](C)C(=O)N[C@@H](CCCNC(=N)N)C(=O)N[C@@H](CC(C)C)C(=O)N[C@@H](CC(C)C)C(=O)N[C@H](C(N)=O)[C@@H](C)O)=C4C)c(C)c3CC [Compound 4]	much larger extent than MPIX 3	–	IC50 (HEp2 cells [1]): 50 µM; cellular accumulation ranking at early times (HEp2 cells [2]; times < 4 h): accumulated the most
GYHWYGYTPQNVI [Compound 8]	much larger extent than MPIX 3	0.132	cellular uptake relative to MPIX 3 (HEp2 cells [2]; after 24 h): about 8 fold
CCC1=C(C)c2cc3[nH]c(cc4[nH]c(cc5nc(cc1n2)C(C)=C5CC)c(C)c4CCC(=O)O)c(CCC(=O)O)c3C [Compound 3, mesoporphyrin IX]	–	–	ΦF (fluorescence quantum yield) [4]: 0.102
CCC1=C(C)c2cc3[nH]c(cc4nc(cc5[nH]c(cc1n2)c(C)c5CCC(=O)NCC(=O)N[C@@H](Cc1ccc(O)cc1)C(=O)N[C@@H](Cc1c[nH]cn1)C(=O)N[C@@H](Cc1c[nH]c2ccccc12)C(=O)N[C@@H](Cc1ccc(O)cc1)C(=O)NCC(=O)N[C@@H](Cc1ccc(O)cc1)C(=O)N[C@H](C(=O)N1CCC[C@H]1C(=O)N[C@@H](CCC(N)=O)C(=O)N[C@@H](CC(N)=O)C(=O)N[C@H](C(=O)N[C@H](C(N)=O)[C@@H](C)CC)C(C)C)[C@@H](C)O)C(CCC(=O)O)=C4C)c(C)c3CC [Compound 5]	much larger extent than MPIX 3	0.124	dissociation rate from EGFR [5]: slower dissociation rates
LARLLT [Compound 7]	accumulated significantly less	0.124	–
